Values of other authors as cited in patent US20070298029A1, “Treatment of Neurodegenerative Diseases by the Use of Degs Inhibitors” (priority 2004, published 2007).

Target: T1, dihydroceramide desaturase (Rattus norvegicus, UniProt Q5XIF5)
T1 sequence (Q5XIF5 1-323): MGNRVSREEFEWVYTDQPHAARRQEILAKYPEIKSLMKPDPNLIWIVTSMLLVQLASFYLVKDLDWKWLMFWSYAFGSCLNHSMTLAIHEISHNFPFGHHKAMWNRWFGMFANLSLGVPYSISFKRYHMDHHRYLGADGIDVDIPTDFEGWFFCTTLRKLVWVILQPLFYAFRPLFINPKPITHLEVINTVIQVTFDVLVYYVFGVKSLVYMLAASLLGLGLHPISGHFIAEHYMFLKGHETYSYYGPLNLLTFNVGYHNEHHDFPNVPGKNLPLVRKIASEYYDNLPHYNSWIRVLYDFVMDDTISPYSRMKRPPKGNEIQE
Conditions: competitive inhibitor

Ki: 6 µM
SMILES: CCCCCCCCCCCCCC1=C([C@H](O)[C@@H](CO)NC(=O)CCCCCCC)C1 [GT11, N-[(1R,2S)-2-hydroxy-1-hydroxymethyl-2-(2-tridecyl-1-cyclopropenyl)ethyl]octanamide]
